Species: Rattus norvegicus
Experiment: Open TG-GATES - Regimen: Single
Type: toxicity, organism-based, Sprague-Dawley
Set-up: regimen Single, gender Male, age 6 weeks
Settings: in vivo, po, route gavage; for APTT / Bas / Eos / Fbg / Hb / Ht / Lym / MCH / MCHC / MCV / Mono / Neu / PT / Plat / RBC / Ret / WBC: tissue Blood; for KIDNEY_L / KIDNEY_R / KIDNEY_TOTAL: tissue Kidney; for ALP / AST / CRE / Cl / DBIL / GLC / IP / K / LDH / Na / PL / RALB / TBIL / TC / TG / TP / gamma-GTP / ALT: tissue Plasma
[1] = 0 mg/kg, 3 h, dose level Control
[2] = 0 mg/kg, 6 h, dose level Control
[3] = 0 mg/kg, 9 h, dose level Control
[4] = 0 mg/kg, 24 h, dose level Control

Work on `COc1cc2c(c(OC)c1OC)-c1ccc(OC)c(=O)cc1[C@@H](NC(C)=O)CC2` [COLCHICINE] yielded a TERMINAL_BW [1] of 221.7 g, an APTT [1] of 16.2 s and a Bas [1] of 0%. It also gave an Eos [1] of 0.8%, a Fbg [1] of 209.4 mg/dL and a Hb [1] of 13.1 g/dL. It also gave a Ht [1] of 39.6%, a Lym [1] of 81.8% and an MCH [1] of 21.6 pg. It also gave an MCHC [1] of 33.1%, an MCV [1] of 65.2 fL and a Mono [1] of 7%. It also gave a Neu [1] of 10.4%, a PT [1] of 11.8 s and a Plat [1] of 118.4 x10_4/uL. The RBC [1] was 608.4 x10_4/ul, the Ret [1] was 10.3% and the WBC [1] was 89.6 x10_2/uL. For the same molecule, the KIDNEY_L [1] was 1 g, the KIDNEY_R [1] was 1.1 g and the KIDNEY_TOTAL [1] was 2 g. For the same molecule, the ALP [1] was 835.6 IU/L, the AST [1] was 65.6 IU/L and the CRE [1] was 0.4 mg/dL. It also gave a Cl [1] of 103.4 meq/L, a DBIL [1] of 0.038 mg/dL and a GLC [1] of 208.6 mg/dL. The IP [1] was 9.3 mg/dL, the K [1] was 4.5 meq/L and the LDH [1] was 88.4 IU/L. The Na [1] was 140.2 meq/L, the PL [1] was 139.2 mg/dL and the RALB [1] was 3.6 g/dL. For the same molecule, the TBIL [1] was 0.3 mg/dL, the TC [1] was 78.4 mg/dL and the TG [1] was 61 mg/dL. The TP [1] was 5.4 g/dL, the gamma-GTP [1] was 1.4 IU/L and the TERMINAL_BW [2] was 218.4 g. It also gave an APTT [2] of 16.3 s, a Bas [2] of 0% and an Eos [2] of 0.8%. For the same molecule, the Fbg [2] was 222.4 mg/dL, the Hb [2] was 13.1 g/dL and the Ht [2] was 39.9%. The Lym [2] was 82.2%, the MCH [2] was 21.6 pg and the MCHC [2] was 33%. It also gave an MCV [2] of 65.4 fL, a Mono [2] of 6.6% and a Neu [2] of 10.4%. For the same molecule, the PT [2] was 12 s, the Plat [2] was 110.7 x10_4/uL and the RBC [2] was 609.8 x10_4/ul. It also gave a Ret [2] of 9.6%, a WBC [2] of 104.3 x10_2/uL and a KIDNEY_L [2] of 1 g. For the same molecule, the KIDNEY_R [2] was 1 g, the KIDNEY_TOTAL [2] was 2 g and the ALP [2] was 745.2 IU/L. For the same molecule, the ALT [2] was 27.6 IU/L, the AST [2] was 59 IU/L and the CRE [2] was 0.5 mg/dL. The Cl [2] was 104 meq/L, the DBIL [2] was 0.036 mg/dL and the GLC [2] was 188.2 mg/dL. It also gave an IP [2] of 10.1 mg/dL, a K [2] of 4.6 meq/L and an LDH [2] of 77.2 IU/L. It also gave a Na [2] of 139 meq/L, a PL [2] of 135.2 mg/dL and an RALB [2] of 3.7 g/dL. It also gave a TBIL [2] of 0.4 mg/dL, a TC [2] of 73.2 mg/dL and a TG [2] of 48.4 mg/dL. For the same molecule, the TP [2] was 5.5 g/dL, the gamma-GTP [2] was 1.6 IU/L and the TERMINAL_BW [3] was 218.9 g. For the same molecule, the APTT [3] was 16.3 s, the Bas [3] was 0% and the Eos [3] was 0.8%. It also gave a Fbg [3] of 216.2 mg/dL, a Hb [3] of 12.8 g/dL and a Ht [3] of 38.9%. It also gave a Lym [3] of 85.4%, an MCH [3] of 21.6 pg and an MCHC [3] of 33%. It also gave an MCV [3] of 65.8 fL, a Mono [3] of 5.4% and a Neu [3] of 8.4%. It also gave a PT [3] of 12.1 s, a Plat [3] of 111 x10_4/uL and an RBC [3] of 591.6 x10_4/ul. It also gave a Ret [3] of 9.4%, a WBC [3] of 88.7 x10_2/uL and a KIDNEY_L [3] of 1 g. The KIDNEY_R [3] was 1.1 g, the KIDNEY_TOTAL [3] was 2.1 g and the ALP [3] was 948.4 IU/L. The ALT [3] was 28.8 IU/L, the AST [3] was 64.4 IU/L and the CRE [3] was 0.5 mg/dL. For the same molecule, the Cl [3] was 105.2 meq/L, the DBIL [3] was 0.044 mg/dL and the GLC [3] was 199.8 mg/dL. It also gave an IP [3] of 9.9 mg/dL, a K [3] of 4.9 meq/L and an LDH [3] of 71.2 IU/L. The Na [3] was 137.6 meq/L, the PL [3] was 134.4 mg/dL and the RALB [3] was 3.8 g/dL. The TBIL [3] was 0.4 mg/dL, the TC [3] was 77.6 mg/dL and the TG [3] was 40 mg/dL. For the same molecule, the TP [3] was 5.4 g/dL, the gamma-GTP [3] was 1.6 IU/L and the TERMINAL_BW [4] was 232.9 g. The APTT [4] was 16.4 s, the Bas [4] was 0% and the Eos [4] was 1.2%. The Fbg [4] was 215.8 mg/dL, the Hb [4] was 12.8 g/dL and the Ht [4] was 38.6%. The Lym [4] was 77.2%, the MCH [4] was 21.7 pg and the MCHC [4] was 33.1%. The MCV [4] was 65.5 fL, the Mono [4] was 7.2% and the Neu [4] was 14.6%. For the same molecule, the PT [4] was 11.2 s, the Plat [4] was 118.5 x10_4/uL and the RBC [4] was 588.4 x10_4/ul. It also gave a Ret [4] of 10.2%, a WBC [4] of 102.4 x10_2/uL and a KIDNEY_L [4] of 1.1 g. For the same molecule, the KIDNEY_R [4] was 1.1 g, the KIDNEY_TOTAL [4] was 2.2 g and the ALP [4] was 858 IU/L. The AST [4] was 61.2 IU/L, the CRE [4] was 0.5 mg/dL and the Cl [4] was 102.8 meq/L. It also gave a DBIL [4] of 0.022 mg/dL, a GLC [4] of 203 mg/dL and an IP [4] of 7.7 mg/dL. It also gave a K [4] of 4.9 meq/L, an LDH [4] of 86.2 IU/L and a Na [4] of 137.6 meq/L. It also gave a PL [4] of 156.8 mg/dL, an RALB [4] of 3.8 g/dL and a TBIL [4] of 0.4 mg/dL. It also gave a TC [4] of 84.8 mg/dL, a TG [4] of 122.8 mg/dL and a TP [4] of 5.7 g/dL. It also gave a gamma-GTP [4] of 1 IU/L and a TERMINAL_BW (2 mg/kg, 3 h, dose level Low) of 218.7 g.
